Measured values: patent US7655624B2, “Peptide and peptide mimetic conjugates with integrin-inhibitor properties” (Biomet Deutschland GmbH, priority 2000, dated 2010)

System: mouse MC3T3 H1 osteoblast cultures
Test: Cell adhesion test on RGD-peptide-coated material surfaces
Type: cell-based
Details: adhered cells/inoculated cells x 100; 50 000 cells/cm^2 inoculated on peptide-coated material surface; serum-free medium, 37° C./95% atmospheric humidity, one hour
Protocol: The shaped articles are transferred into 48 wells (Costar, “non-tissue culture treated” Art. No. 3574). To attach the bioactive, cell adhesion-mediating molecules B (where B can be a cyclopeptide, peptide mimetic or linear peptide according to claim 2) to the prepared shaped articles, molecule B-containing stock solutions (“B solutions”) are prepared in a final concentration of 1 mM in one of the aqueous buffers Tris-HCl (10 mM, pH 8.7), Tris-HClO4 (10 mM, pH 8.7) or PBS, pH 7.4. Concentration series with the “B solutions” final concentrations of in each case 1 nm, 10 nm, 100 nm, 1 μm, 10 μm and 100 μm are then prepared by dilution with PBS, pH 7.4. The shaped articles are each covered with 250 μl of the respective B solution and then incubated at room temperature for 18-24 hours. To remove unbound B molecules, the samples are washed three times with PBS, pH 7.4, and stored in PBS, pH 7.4, at 4° C. overnight. […]
The adhesion of mouse MC3T3 H1 osteoblast cultures in vitro to RGD-peptide-coated material surfaces was investigated. In this test, 50 000 cells/cm^2 were inoculated and, after incubation in serum-free medium at 37° C./95% atmospheric humidity for one hour, the proportion of adhered cells was determined. […]

Substance | cell adhesion rate
Cyclo-(Arg-Gly-Asp-DPhe-Lys (N^εH—[CO—(CH2)5—NH]3-Lys-[Lys-(CO—CH2—CH2—PO3H2)2]2) [Example 5] | 62%
Cyclo-(Arg-Gly-Asp-DPhe-Lys (N^εH[CO—(CH2)5—NH]2-Lys-[Lys-(CO—CH2—CH2—PO3H2)2]2)) [Example 4] | 75%
